From patent US20250351818A1, “PESTICIDAL BAIT COMPOSITION AND PROCESSES RELATED THERETO” (priority 2022, published 2025)

What was measured:
[1] = tested on: stunts (corn stunt disease); experiment: Field corn, four foliar applications of pesticides solo and in mixture with kasugamycin, incidence of stunts and yield; type: in vivo; conditions: four foliar applications 7 days apart from V2; 91 days after sowing
Source text: Another major problem is corn stunt disease. S. kunkelii, a spiroplasma often referred to as corn stunt spiroplasma and a Maize bushy stunt phytoplasma (MBSP) can both survive in the maize leafhopper (Dalbulus maidis), and it causes corn stunt disease. Foliar use of insecticides can be used to partially control Dalbulus maidis, however, the use of this method to control corn stunt disease is not very successful. kasugamycin (Ksg) is an aminoglycoside antibiotic. However, we have discovered that mixing kasugamycin with pesticides can control the Dalbulus maidis and S. kunkelii at the same time thereby helping to avoid corn stunt disease brought by the vector Dalbulus maidis. The amount of kasugamycin can vary from 20 g ai/ha to 100 g ai/ha in mixture with the insecticides when used in foliar applications, for example, spinetoram and sulfoxaflor at 18 g ai/ha+32 g ai/ha respectively, or spinetoram and methomyl at 18 g ai/ha and 220 g ai/ha, respectively. […]
Four foliar applications of pesticides solo and in mixture with kasugamycin were performed in corn plants in field starting at V2 (2 true-leaves) stage of the crop with 7 days apart. […] The incidence of plants with symptoms of stunts at 53 and 91 days after sowing and the yield were assessed. […]

[2] = tested on: phytoplasma and spiroplasma (corn stunt); experiment: Corn field naturally infected, foliar kasugamycin, severity of the stunts; type: in vivo; conditions: 100 g ai/ha; for severity of the disease (percent of leaf area infected, visual): 1 application/week for 4 weeks
Source text: Another major problem is corn stunt disease. S. kunkelii, a spiroplasma often referred to as corn stunt spiroplasma and a Maize bushy stunt phytoplasma (MBSP) can both survive in the maize leafhopper (Dalbulus maidis), and it causes corn stunt disease. Foliar use of insecticides can be used to partially control Dalbulus maidis, however, the use of this method to control corn stunt disease is not very successful. kasugamycin (Ksg) is an aminoglycoside antibiotic. However, we have discovered that mixing kasugamycin with pesticides can control the Dalbulus maidis and S. kunkelii at the same time thereby helping to avoid corn stunt disease brought by the vector Dalbulus maidis. The amount of kasugamycin can vary from 20 g ai/ha to 100 g ai/ha in mixture with the insecticides when used in foliar applications, for example, spinetoram and sulfoxaflor at 18 g ai/ha+32 g ai/ha respectively, or spinetoram and methomyl at 18 g ai/ha and 220 g ai/ha, respectively. However, with the bait composition the amount of kasugamycin to use in the pesticidal bait compositions, based on the total weight of a pesticidal bait composition, is from about 2.0 weight percent to about 0.01 weight percent, preferably from about 1.0 weight percent to about 0.1 weight percent, and even more preferably from about 0.5 weight percent to about 0.25 weight percent. Of course, the kasugamycin weight percent will vary depending on various factors such as, local environmental conditions and pest control effects desired, among other factors.
A corn field with plants naturally infected by both phytoplasma and spiroplasma was sprayed with kasugamycin at 100 g ai/ha. The plants with 4 true-leaves were sprayed with 1 application/week for 4 weeks. Fifteen days after the first application and 15 days after the fourth spraying the severity of the stunts were evaluated visually, considering the percent of leaf area infected (showing symptoms). […]

C[C@H]1O[C@H](O[C@H]2[C@H](O)[C@@H](O)[C@@H](O)[C@H](O)[C@@H]2O)[C@@H](N)C[C@@H]1NC(=N)C(=O)O [kasugamycin]
reduction of the progression of the disease in comparison with the untreated [1]: 11%
severity of the disease (percent of leaf area infected, visual) ([2]; 15 days after the fourth application): 43%
severity of the disease (percent of leaf area infected, visual) ([2]; fifteen days after the first application): 27%
reduction of the progression of the disease vs untreated ([2]; 15 days after the fourth application (43% vs 54% untreated)): 20%
